Reference: patent US20070207121A1, “Methods of Using and Compositions Comprising Selective Cytokine Inhibitory Drugs for Treatment and Management of Macular Degeneration” (priority 2003, published 2007)

Experiments:
MD = conditions: cited from earlier work
laser-induced CNVM = conditions: intravitreal injection, monkeys; cited from earlier work
patients with MD = conditions: intravitreal injection, over a one-year period; cited from earlier work
TNF-α production = assay: Inhibition of TNF-α production following LPS-stimulation of human PBMC and human whole blood (in vitro pharmacology studies); assay type: cell-based; conditions: more potent than thalidomide
Source text: One of the biological effects typically exerted by selective cytokine inhibitory drugs is the reduction of synthesis of TNF-α Specific selective cytokine inhibitory drugs enhance the degradation of TNF-αmRNA. TNF-α may play a pathological role in macular degeneration.
In a specific embodiment, the pharmacological properties of 3-(3,4-dimethoxy-phenyl)-3-(1-oxo-1,3-dihydro-isoindol-2-yl)-propionamide are characterized in in vitro studies. Studies examine the effects of the compound on the production of various cytokines. Inhibition of TNF-α production following LPS-stimulation of human PBMC and human whole blood by the compound is investigated in vitro. […] The pharmacological effects of 3-(3,4-dimethoxy-phenyl)-3-(1-oxo-1,3-dihydro-isoindol-2-yl)-propionamide may derive from its action as an inhibitor of the generation of inflammatory cytokines.

[1] = system: patients with macular degeneration; assay: Clinical study in patients with macular degeneration, adjuvant to photodynamic therapy with verteporfin; assay type: in vivo, human; conditions: about 20 mg/day as adjuvant for 20 weeks with verteporfin photodynamic therapy
Procedure: Selective cytokine inhibitory drugs of the invention are administered in an amount of about 20 to about 1,200 mg per day to patients with macular degeneration. In a specific embodiment, clinical studies are performed with forty patients with macular degeneration, who are divided into two groups. The first group receives conventional treatment for closing the leaking choroidal vessels (characteristic of this disease) by photodynamic therapy with verteporfin. Opthalmol 1999 (117): 1329-1345. The second group receives the same conventional therapy with verteporfin and (+)-2-[1-(3-ethoxy-4 methoxyphenyl)-2-methylsulfonylethyl]-4 acetylaminoisoindoline 1,3-dione in an amount of about 20 mg/day as an adjuvant for 20 weeks.
However, the first group without (+)-2-[1-(3-ethoxy-4 methoxyphenyl)-2-methylsulfonylethyl]-4-acetylaminoisoindoline 1,3-dione experiences progressive reperfusion of the ablated vessels several weeks after treatment. Progressive visual loss follows which requires the photodynamic therapy to be repeated.

In the case of interferon-α, the “efficacy at treating MD” value (MD; clinical trial) is listed as “ineffective” and the adverse effects (MD; in vivo) is listed as “high rate of adverse effects”.
For `C[C@]12C=CC(=O)C=C1CC[C@H]1[C@@H]3C[C@@H](O)[C@](O)(C(=O)CO)[C@@]3(C)C[C@H](O)[C@@]12F` [triamcinolone], the “growth of laser-induced CNVM” value (laser-induced CNVM) is given as “inhibits” and the “prevention of severe visual loss” value (patients with MD) is given as “fails to prevent severe visual loss”.
In the case of `COc1ccc(C(CC(N)=O)N2Cc3ccccc3C2=O)cc1OC` (stereo not shown) [3-(3,4-dimethoxy-phenyl)-3-(1-oxo-1,3-dihydro-isoindol-2-yl)-propionamide], the “pharmacological activity profile, potency relative to thalidomide” value (TNF-α production) is reported as “five to fifty”.
With `CCOc1cc(C(CS(C)(=O)=O)N2C(=O)c3cccc(NC(C)=O)c3C2=O)ccc1OC` (single isomer, unassigned; (+)) [(+)-2-[1-(3-ethoxy-4 methoxyphenyl)-2-methylsulfonylethyl]-4 acetylaminoisoindoline 1,3-dione] the “effects of the photodynamic therapy” value [1] was “indefinitely prolong” and the neovascular cascade [1] was “sufficiently hindered”.
